Values joined by “and” are separate entries in the source; they are usually repeats but may differ in a detail not shown here. Equal entries are not always repeated. Inconclusive results and toxic doses are left out.
Test system: P388 leukemia ip, CD2F1 mice, survival T/C
Assay: NCI In Vivo Anticancer Drug Screen. Data for tumor model P388 Leukemia (intraperitoneal) in CD2F1 (CDF1) mice
Conditions: endpoint: median survival time, higher = longer survival
Summary of the method: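 Mice carrying the transplanted tumor received test compound or vehicle. Survival was recorded in each group, and the value is the treated-group measurement divided by that of the vehicle-treated control group.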

[1] = dose: 50.0 mg/kg/injection, schedule: Q01DX005 (ip), vehicle: Klucel (hydroxypropylcellulose) (HPC)
[2] = dose: 100.0 mg/kg/injection, schedule: Q01DX005 (ip), vehicle: Klucel (hydroxypropylcellulose) (HPC)
[3] = dose: 200.0 mg/kg/injection, schedule: Q01DX005 (ip), vehicle: Klucel (hydroxypropylcellulose) (HPC)
[4] = dose: 60.0 mg/kg/injection, schedule: Q01DX005 (ip), vehicle: saline with Tween-80
[5] = dose: 120.0 mg/kg/injection, schedule: Q01DX005 (ip), vehicle: saline with Tween-80
[6] = dose: 240.0 mg/kg/injection, schedule: Q01DX005 (ip), vehicle: saline with Tween-80
[7] = dose: 50.0 mg/kg/injection, schedule: Q01DX009 (ip), vehicle: saline with Tween-80
[8] = dose: 100.0 mg/kg/injection, schedule: Q01DX009 (ip), vehicle: saline with Tween-80
[9] = dose: 200.0 mg/kg/injection, schedule: Q01DX009 (ip), vehicle: saline with Tween-80
[10] = dose: 400.0 mg/kg/injection, schedule: Q01DX009 (ip), vehicle: saline with Tween-80
[11] = dose: 100.0 mg/kg/injection, schedule: Q04DX002 (ip), vehicle: saline with Tween-80
[12] = dose: 200.0 mg/kg/injection, schedule: Q04DX002 (ip), vehicle: saline with Tween-80
[13] = dose: 12.5 mg/kg/injection, schedule: Q01DX009 (ip), vehicle: saline with Tween-80
[14] = dose: 50.0 mg/kg/injection, schedule: Q01DX005 (ip), vehicle: saline with Tween-80
[15] = dose: 100.0 mg/kg/injection, schedule: Q01DX005 (ip), vehicle: saline with Tween-80
[16] = dose: 200.0 mg/kg/injection, schedule: Q01DX005 (ip), vehicle: saline with Tween-80
[17] = dose: 60.0 mg/kg/injection, schedule: Q01DX005 (ip), vehicle: Klucel (hydroxypropylcellulose) (HPC)
[18] = dose: 120.0 mg/kg/injection, schedule: Q01DX005 (ip), vehicle: Klucel (hydroxypropylcellulose) (HPC)
[19] = dose: 240.0 mg/kg/injection, schedule: Q01DX005 (ip), vehicle: Klucel (hydroxypropylcellulose) (HPC)

CSCCC(NC(=O)C(Cl)Cl)C(=O)O (stereo not drawn)
T/C [1]: 100 % of control
T/C [2]: 96 % of control
T/C [3]: 100 % of control

NS(=O)(=O)c1ccc(NC(=O)C2C(=O)N(c3ccc(S(N)(=O)=O)cc3)C(=O)/C2=N/O)cc1 (stereo not drawn)
T/C [4]: 111 % of control
T/C [5]: 110 % of control
T/C [6]: 101 % of control

CC(C)(C)/C(O)=C/c1nc2ccc(Cl)cc2[nH]c1=O
T/C (dose: 7.5 mg/kg/injection, schedule: Q01DX005 (ip), vehicle: Klucel + Tween-80): 97 % of control
T/C (dose: 15.0 mg/kg/injection, schedule: Q01DX005 (ip), vehicle: Klucel + Tween-80): 92 % of control
T/C (dose: 30.0 mg/kg/injection, schedule: Q01DX005 (ip), vehicle: Klucel + Tween-80): 88 % of control
T/C (dose: 240.0 mg/kg/injection, schedule: Q01DX005 (ip), vehicle: Klucel + Tween-80): 90 % of control

CC(NC(=O)C(=O)c1c[nH]c2ccccc12)C(=O)O (stereo not drawn)
T/C [4]: 98 % of control
T/C [5]: 96 % of control
T/C [6]: 103 % of control

O=C1C(Cl)=C(Sc2nnc3c4ccccc4c4ccccc4c3n2)C(=O)c2ccccc21
T/C [7]: 100 % of control
T/C [8]: 91 % of control
T/C [9]: 99 % of control

O=C1c2cccc([N+](=O)[O-])c2C(=O)C1c1ccccn1 (stereo not drawn)
T/C [7]: 99 % of control
T/C [8]: 87 % of control
T/C [9]: 96 % of control
T/C [10]: 97 % of control

CC(C)C1CCC2(C)CCC3(C)CCC12O3 (stereo not drawn)
T/C (dose: 12.0 mg/kg/injection, schedule: Q01DX009 (ip), vehicle: Klucel (hydroxypropylcellulose) (HPC)): 108 % of control
T/C (dose: 24.0 mg/kg/injection, schedule: Q01DX009 (ip), vehicle: Klucel (hydroxypropylcellulose) (HPC)): 98 % of control
T/C (dose: 48.0 mg/kg/injection, schedule: Q01DX009 (ip), vehicle: Klucel (hydroxypropylcellulose) (HPC)): 108 % of control
T/C (dose: 96.0 mg/kg/injection, schedule: Q01DX009 (ip), vehicle: Klucel (hydroxypropylcellulose) (HPC)): 108 % of control

CCc1nc(N)nc(N)c1-c1ccc(N=[N+]=[N-])c(Cl)c1
T/C [11]: 160 % of control
T/C [12]: 116 % of control
T/C (dose: 400.0 mg/kg/injection, schedule: Q04DX002 (ip), vehicle: saline with Tween-80): 90 % of control

O=C(O)/C=C/C(=O)N1Cc2cc3ccccc3nc2C1
T/C (dose: 1.56 mg/kg/injection, schedule: Q01DX009 (ip), vehicle: saline with Tween-80): 100 % of control and 101 % of control and 104 % of control
T/C (dose: 3.13 mg/kg/injection, schedule: Q01DX009 (ip), vehicle: saline with Tween-80): 99 % of control and 103 % of control and 117 % of control
T/C (dose: 6.25 mg/kg/injection, schedule: Q01DX009 (ip), vehicle: saline with Tween-80): 101 % of control and 94 % of control
T/C (dose: 8.0 mg/kg/injection, schedule: Q01DX009 (ip), vehicle: saline with Tween-80): 91 % of control
T/C [13]: 98 % of control and 99 % of control and 107 % of control
T/C (dose: 16.0 mg/kg/injection, schedule: Q01DX009 (ip), vehicle: saline with Tween-80): 94 % of control
T/C (dose: 32.0 mg/kg/injection, schedule: Q01DX009 (ip), vehicle: saline with Tween-80): 99 % of control
T/C (dose: 64.0 mg/kg/injection, schedule: Q01DX009 (ip), vehicle: saline with Tween-80): 94 % of control

COC1=CC(C(=O)O)C=C(OC)C1
T/C [14]: 102 % of control
T/C [15]: 104 % of control
T/C [16]: 89 % of control

CCN(CC)C1=C/CC/C(c2ccccc2)=N/N=C\1c1ccccc1
T/C [17]: 89 % of control
T/C [18]: 95 % of control
T/C [19]: 97 % of control

Cc1nn(-c2ccccc2)nc1C(=O)Nc1ccc2[nH]ncc2c1
T/C [4]: 91 % of control
T/C [5]: 94 % of control
T/C [6]: 86 % of control

Cc1ccc(OCC(COc2ccc(C)cc2)(COc2ccc(C)cc2)COc2ccc(C)cc2)cc1
T/C [13]: 86 % of control
T/C (dose: 25.0 mg/kg/injection, schedule: Q01DX009 (ip), vehicle: saline with Tween-80): 86 % of control
T/C [7]: 86 % of control

O=C1C=CC2=Cc3ccccc3CN12
T/C [4]: 100 % of control
T/C [5]: 100 % of control
T/C [6]: 100 % of control

c1cc2ccc3ccc4ccc5ccc6ccc1c1c2c3c4c5c61
T/C (dose: 12.5 mg/kg/injection, schedule: Q01DX001 (ip), vehicle: Klucel (hydroxypropylcellulose) (HPC)): 100 % of control
T/C (dose: 25.0 mg/kg/injection, schedule: Q01DX001 (ip), vehicle: Klucel (hydroxypropylcellulose) (HPC)): 104 % of control
T/C (dose: 50.0 mg/kg/injection, schedule: Q01DX001 (ip), vehicle: Klucel (hydroxypropylcellulose) (HPC)): 96 % of control
T/C (dose: 100.0 mg/kg/injection, schedule: Q01DX001 (ip), vehicle: Klucel (hydroxypropylcellulose) (HPC)): 96 % of control

COP1(=O)CC(=O)C(C)(C)N1C (stereo not drawn)
T/C [1]: 101 % of control
T/C [2]: 107 % of control
T/C [3]: 111 % of control

CCC1(c2ccccc2)C(=O)c2ccccc2C1=O
T/C (dose: 100.0 mg/kg/injection, schedule: Q04DX002 (ip), vehicle: saline): 101 % of control
T/C (dose: 200.0 mg/kg/injection, schedule: Q04DX002 (ip), vehicle: saline): 102 % of control
T/C (dose: 400.0 mg/kg/injection, schedule: Q04DX002 (ip), vehicle: saline): 105 % of control

O=C(Nc1ccccn1)c1ccccc1S(=O)(=O)O
T/C [14]: 102 % of control
T/C [15]: 104 % of control
T/C [16]: 99 % of control

Oc1cccnc1[Se]
T/C [17]: 112 % of control
T/C [18]: 106 % of control
T/C [19]: 110 % of control

Oc1c(CN2CCOCC2)cc(CN2CCOCC2)cc1CN1CCOCC1
T/C [7]: 94 % of control
T/C [8]: 103 % of control
T/C [9]: 100 % of control
T/C [10]: 100 % of control

O=C(CC(=NCC(O)CN=C(CC(=O)c1ccccc1)c1ccccc1)c1ccccc1)c1ccccc1.[Ni] (stereo not drawn)
T/C (dose: 25.0 mg/kg/injection, schedule: Q04DX003 (ip), vehicle: saline with Tween-80): 94 % of control
T/C (dose: 50.0 mg/kg/injection, schedule: Q04DX003 (ip), vehicle: saline with Tween-80): 94 % of control
T/C (dose: 100.0 mg/kg/injection, schedule: Q04DX003 (ip), vehicle: saline with Tween-80): 87 % of control
T/C (dose: 200.0 mg/kg/injection, schedule: Q04DX003 (ip), vehicle: saline with Tween-80): 86 % of control

CC(C)CC(Nc1ncnc2c1CCc1ccccc1-2)C(=O)O (stereo not drawn)
T/C (dose: 50.0 mg/kg/injection, schedule: Q04DX002 (ip), vehicle: saline with Tween-80): 100 % of control
T/C [11]: 90 % of control
T/C [12]: 99 % of control

c1ccc(-n2nc3c(c2-c2cccnc2)Cc2ccccc2-3)cc1
T/C [14]: 101 % of control
T/C [15]: 100 % of control
T/C [16]: 98 % of control

COc1cccc2c1C(=O)c1c(O)c3c(c(O)c1C2=O)C[C@@](O)(C(=O)CO)CC3OC1CC(O)C(O)C(C)O1 (stereo partly drawn)
T/C (dose: 6.25 mg/kg/injection, schedule: Q04DX003 (ip), vehicle: saline): 122 % of control
T/C (dose: 12.5 mg/kg/injection, schedule: Q04DX003 (ip), vehicle: saline): 165 % of control
T/C (dose: 25.0 mg/kg/injection, schedule: Q04DX003 (ip), vehicle: saline): 183 % of control
T/C (dose: 50.0 mg/kg/injection, schedule: Q04DX003 (ip), vehicle: saline): 209 % of control

C/C(=C\Cl)COC1CCCCO1 (stereo not drawn)
T/C [7]: 122 % of control
T/C [8]: 122 % of control

C(=C\c1ccccc1)/CN1CCN(C(c2ccccc2)c2ccccc2)CC1
T/C (dose: 50.0 mg/kg/injection, schedule: Q01DX009 (ip), vehicle: Klucel (hydroxypropylcellulose) (HPC)): 97 % of control
T/C (dose: 100.0 mg/kg/injection, schedule: Q01DX009 (ip), vehicle: Klucel (hydroxypropylcellulose) (HPC)): 94 % of control
T/C (dose: 200.0 mg/kg/injection, schedule: Q01DX009 (ip), vehicle: Klucel (hydroxypropylcellulose) (HPC)): 90 % of control

C=C1C(=O)C23CC1CCC2C12COC(OC(=O)CCCCCCCCCCC)C1C(C)(C)C(O)CC2OC3=O (stereo not drawn)
T/C (dose: 7.5 mg/kg/injection, schedule: Q01DX009 (ip), vehicle: saline with Tween-80): 103 % of control
T/C (dose: 15.0 mg/kg/injection, schedule: Q01DX009 (ip), vehicle: saline with Tween-80): 95 % of control
T/C (dose: 30.0 mg/kg/injection, schedule: Q01DX009 (ip), vehicle: saline with Tween-80): 103 % of control
T/C (dose: 60.0 mg/kg/injection, schedule: Q01DX009 (ip), vehicle: saline with Tween-80): 103 % of control

From PubChem BioAssay AID330 (DTP/NCI, 2004)
